From patent US10398676B2, “Use of alpha-hydroxy carbonyl compounds as reducing agents” (Morvus Technology Ltd, priority 2005, dated 2019)
Marks after values point to notes of the source that are not given here.

What was measured:
[1] = Reduction of NADP+ by α-hydroxycarbonyl compounds (Example 7); assay type: physicochemical; conditions: 1 mM test compound, 200 μM NADP+, pH 10 (1 mM NaHCO3 buffer), over 2 minutes
Description: A 10 μL aliquot of test compound (at a concentration of 100 mM in water) is added to a 200 μM NADP^+ aqueous solution (approximately 990 μL), buffered to pH 10 (1 mM NaHCO3 buffer). The final concentration of the test compound in the assay solution was 1 mM. Reduction of NADP^+ was then monitored by measuring the increase, over the course of 2 minutes, of absorption at 350 nm on a spectrophotometer. Initial rates were recorded as the change in A350 per minute.

[2] = Reduction of tretazicar by α-hydroxycarbonyl compounds, HPLC initial rate (Example 8); assay type: physicochemical; conditions: 10 mM test compound, 100 μM tretazicar, 0.1 M sodium bicarbonate buffer; for Initial Rate of tretazicar reduction, pH 9: pH 9, 37° C.; for Initial Rate of tretazicar reduction, pH 10: pH 10, 37° C.
Description: (§1) The assay was started by addition of 100 μL of 100 mM test compound (compound of formula I) in water to a mixture of tretazicar (100 μM) in 0.1 M sodium bicarbonate buffer, pH 9 or pH 10, to give a final volume of 1 mL. The mixture was incubated at 37° C. and aliquots (10 μL) were taken every 6 min and assayed immediately by HPLC [Partisil 10 SCX (4.2×150 mm) (Whatman, Maidstone, Kent, U.K.] eluted isocratically with 0.13 M sodium phosphate (pH 5) at 1.5 ml/min). The concentration of tretazicar was determined in each sample by reference of the corresponding peak area with an external standard, quantified by absorbance at 325 nm. Initial rates were calculated by curve fitting (FigP, Biosoft, Cambridge, U.K.). Reduction products were identified by retention time relative to an authentic standard.

[3] = humans, phase I; cited from earlier work
DNA = conditions: cited from earlier work
[4] = DHA reduction of prodrugs and nitro compounds, HPLC initial rate (Examples 5 and 6); assay type: physicochemical; conditions: 100 μM compound, 10 mM DHA, 37° C.
Description: The assay mixture contained the compound under test (100 μM) and DHA (10 mM) in a final reaction volume of 1 mL of sodium phosphate buffer (of the required pH). The reaction was started by addition of DHA and the mixture is incubated at 37° C.

[5] = Chemical activation of tretazicar by DHA in bicarbonate buffer (Example 1); assay type: physicochemical; conditions: 10 mM DHA, 100 μM tretazicar, 0.1M sodium bicarbonate buffer, 1 ml
Description: as §1, with “DHA” for “test compound (compound of formula I)”, “0.1M” for “0.1 M”, “pH10,” for “pH 10,”, “ml.” for “mL.”, “(42×150” for “(4.2×150”, “mL/min).” for “ml/min).”

[6] = bioactivated versus non-activated; cited from earlier work
[7] = DHA reduction of prodrugs and nitro compounds, HPLC initial rate (Examples 5 and 6); assay type: physicochemical; conditions: 100 μM compound, 1 mM DHA employed (instead of 10 mM DHA), 37° C.
[8] = test system: Chinese Hamster V79 cells; assay: Survival of V79 cells, colony forming ability (FIG. 7); assay type: cell-based; conditions: 10 or 100 μM E09 with 10 mM DHA, 2 hours, pH 7.5, 37° C.
Description: The survival of V79 cells was determined using the following method: • Volumes (1 mL, 2×10^5 cells/mL) of V79 cells in 10 mM phosphate buffer (pH 7.5) containing 140 mM NaCl were incubated at 37° C. and then reagents (as indicated above, at the concentrations stipulated) were added (except for the control experiment). After a 2 hour incubation, the cells were harvested by centrifugation, diluted out serially (4×10-fold) and the cells plated into growth medium and assayed for their colony forming ability after growth for 1 week in a humidified 5% CO2 atmosphere.

For `O=C(CO)CO` [Dihydroxyacetone (dimer), 1,3-dihydroxy-2-propanone], the “Rate of NADP+ reduction” value [1] was 0.063 change in A350 per minute, the “Initial Rate of tretazicar reduction, pH 9” value [2] was 0.92 nmoles/min/mL and the “Initial Rate of tretazicar reduction, pH 10” value [2] was 0.69 nmoles/min/mL.

In the case of `NC(=O)c1cc(N2CC2)c([N+](=O)[O-])cc1[N+](=O)[O-]` [Tretazicar, 5-(aziridin-1-yl)-2,4-dinitrobenzamide], the MTD [3] is given as 37.5 mg/m^2, the “dose safely administered without any significant toxicity” value [3] is given as “up to 24 mg/m^2” and the “increase in the amount of DNA-bound drug” value (DNA; Walker cells compared to cells which cannot reduce tretazicar (Friedlos et al, 1992)) is given as 10 fold. The “interstrand crosslinks as share of total lesions / total DNA reactions” value (DNA; literature values (Friedlos et al, 1992; Knox et al, 1986)) was “up to 70%”, the “INITIAL RATE, 0.1 M PO4, pH7.5” value [4] was <0.01 nmoles/min/mL and the “INITIAL RATE, 0.1 M PO4, pH8” value [4] was 0.158 nmoles/min/mL. For the same molecule, the “Initial Rate, pH 8” value ([4]; pH 8) was 0.158 nmoles/min/mL, the “Initial Rate, pH 9” value [4] was 0.933 nmoles/min/mL and the “Initial Rate, pH 10” value ([4]; pH 10) was 1.248 nmoles/min/mL. For the same molecule, the “Initial Rate, pH 10.6” value ([4]; pH 10.6) was 5.801 nmoles/min/mL, the “rate of tretazicar reduction by DHA at pH 9” value ([5]; pH 9, 37° C.) was 0.92 nmol/min and the “rate of tretazicar reduction by DHA at pH 10” value ([5]; pH 10, 37° C.) was 0.69 nmol/min. For the same molecule, the “dose modification resulting from bioactivation (increase in cytotoxicity)” value [6] was “up to 100,000 fold”.

With “Hydroxyacetone [Hydroxyacetone (acetol)]” the “Rate of NADP+ reduction” value [1] was 0.003 change in A350 per minute.

With `O=C(CO)[C@H](O)[C@@H](O)CO` [L-Xylulose] the “Rate of NADP+ reduction” value [1] was 0.003 change in A350 per minute, the “Initial Rate of tretazicar reduction, pH 9” value [2] was < 0.01 nmoles/min/mL and the “Initial Rate of tretazicar reduction, pH 10” value [2] was 0.28 nmoles/min/mL.

With `O=CC(O)C(O)CO` (stereo not drawn) [D(−)-Erthrose] the “Rate of NADP+ reduction” value [1] was 0.004 change in A350 per minute, the “Initial Rate of tretazicar reduction, pH 9” value [2] was < 0.01 nmoles/min/mL and the “Initial Rate of tretazicar reduction, pH 10” value [2] was 0.28 nmoles/min/mL.

For Glycolaldehyde [Glycolaldehyde dimer], the “Rate of NADP+ reduction” value [1] was 0.029 change in A350 per minute, the “Initial Rate of tretazicar reduction, pH 9” value [2] was 0.18 nmoles/min/mL and the “Initial Rate of tretazicar reduction, pH 10” value [2] was 0.14 nmoles/min/mL.

In the case of `CC(=O)C(C)O` (stereo not shown) [3-hydroxy-2-butanone], the “Initial Rate of tretazicar reduction, pH 9” value [2] is reported as 0.034 nmoles/min/mL and the “Initial Rate of tretazicar reduction, pH 10” value [2] is reported as 0.184 nmoles/min/mL.

For `CO[C@@]12[C@H](COC(N)=O)C3=C(C(=O)C(C)=C(N)C3=O)N1C[C@@H]1N[C@@H]12` [Mitomycin C], the “INITIAL RATE, 0.1 M PO4, pH8, 1 mM DHA” value ([7]; pH8) was 0.052^a nmoles/min/mL, the “Initial Rate, pH 8, 1 mM DHA” value ([7]; pH8) was 0.052 nmoles/min/mL and the “Initial Rate, pH 8.5, 1 mM DHA” value ([7]; pH 8.5) was 0.103 nmoles/min/mL. For the same molecule, the “INITIAL RATE, pH7.5 column, (PBS)” value ([4]; PBS) was 1.524 (PBS) nmoles/min/mL, the “Initial Rate, pH 7” value ([4]; pH 7) was 1.019 nmoles/min/mL and the “Initial Rate, pH 9” value [4] was “Too fast to measure”.

In the case of `O=CC(O)CO` (racemic) [D,L-Glyceraldehyde], the “Rate of NADP+ reduction” value [1] is reported as 0.015 change in A350 per minute, the “Initial Rate of tretazicar reduction, pH 9” value [2] is reported as 0.53 nmoles/min/mL and the “Initial Rate of tretazicar reduction, pH 10” value [2] is reported as 0.62 nmoles/min/mL.

In the case of `Cn1c(/C=C/CO)c(CO)c2c1C(=O)C=C(N1CC1)C2=O` [E09, 3-[5-aziridinyl-4,7-dioxo-3-hydroxymethyl-1-methyl-1H-indol-2-yl]-prop-β-ene-α-ol], the “cytotoxic effect (percentage survival of V79 cells) on addition of DHA” value [8] is reported as “greatly enhanced”, the “INITIAL RATE, 0.1 M PO4, pH7.5” value [4] is reported as 0.272 nmoles/min/mL and the “INITIAL RATE, 0.1 M PO4, pH8” value [4] is reported as 0.605 nmoles/min/mL.
